Experimental data: paper PMC10046687, “Residues of Legume AG41 Peptide Crucial to Its Bio-Insecticidal Activity” (Biomolecules, 2023)
Like-named read-outs stand apart in the source and are kept apart here. Bridge positions count the residues as written; N and C are the ends. Ends that are not written are not given here.

Columns and labels:
PA1b receptor = assay: Competitive ligand binding with 125I-PA1b on microsomal protein; conditions: competition with 0.4 nM 125I-PA1b, 20 µg microsomal protein per assay, peptide 0.01 to 1000 nM, mean ± standard error, read-out: Ki (affinity to the PA1b receptor)
Experimental: To evaluate the affinity of synthetic AG41 and its mutants to PA1b receptor, ligand binding studies were conducted ^125I-toxin [29]. […] Total binding was assessed using 20 µg per assay of microsomal protein (sedimenting at 45,000 g) and 0.4 nM of I^125-PA1b, while in the non-specific binding assays 1000 nM of unlabeled AG41 or alanine mutant peptide was added. The level of specific binding (i.e., total binding minus non-specific binding) was estimated based on three replicates. Competitive experiments were performed with 0.4 nM ^125I-PA1b (specific radioactivity of approximately 1000 Ci.mmol^−1) and competition was performed with AG41 and its alanine mutant peptides at concentrations ranging from 0.01 to 1000 nM.
(§1) The experimental Ki and LD5O data were assessed separately by non-linear regression analysis using the SIMFIT software package. Biological results are expressed as mean ± S.E. (standard error).

[1] = tested on: Spodoptera frugiperda Sf9 insect cells; assay: Viability assay (MTT) on cultured Sf9 insect cells; format: cell-based; conditions: 24 h exposure, 27 °C, each concentration in triplicate, mean ± standard error, SEM
Experimental: Viability assays were performed on Spodoptera frugiperda Sf9 insect cells in culture using the 3-(4,5-dimethylthiazol-2-yl)-2,5-diphenyltetrazolium bromide (MTT) protocol. Briefly, Sf9 cells lines were grown at 27 °C in Lonza’s culture medium, supplemented with 5% fetal bovine serum (FBS) and 0.1% gentamicin. Sf9 cells were seeded, in 96-well plates, 24 h prior to the experiments (15,000 cells/well) and were exposed to increasing concentrations of AG41 and its alanine mutant peptides for 24 h. Each concentration was performed in triplicate. Cell viability was determined by a colorimetric assay based on the ability of viable cells to reduce MTT. Cells were loaded with MTT solution (0.5 mg ml^−^1) and incubated at 27 °C for 2 h. Cell homogenates were used to measure absorbance at 550 nm using a microplate reader (MR 7000, Dynatech Laboratories Inc., Richmond, CA, USA).
as §1

Sequence: ASCPNVGAVCSPAETKPCGNVKDCRCLPWGLFFGTCINPTG (also: bicyclic or more (positions not given here)) [F13A, single point alanine mutant of AG41 at Phe-13]
- Ki (PA1b receptor): > 1000 nM

Sequence: ASCPNVGAVCSPFATKPCGNVKDCRCLPWGLFFGTCINPTG (also: bicyclic or more (positions not given here)) [E14A, single point alanine mutant of AG41 at Glu-14]
- Ki (PA1b receptor; SEM): 1.2 ± 1.3 nM

Sequence: ASCPNVGAVCSPFETAPCGNVKDCRCLPWGLFFGTCINPTG (disulfide 3-24, 10-26, 18-36) [K16A]
- Ki (PA1b receptor; SEM): 3.6 ± 1.6 nM
- LD50 (insect cell toxicity) [1]: 10.0 ± 4.0 nM

Sequence: ASCPNVGAVCSPFETKPCGNVADCRCLPWGLFFGTCINPTG (disulfide 3-24, 10-26, 18-36) [K22A]
- Ki (PA1b receptor; SEM): 3.2 ± 1.7 nM
- LD50 (insect cell toxicity) [1]: 14.2 ± 6.3 nM

Sequence: ASCPNVGAVCSPFETKPCGNVKACRCLPWGLFFGTCINPTG (disulfide 3-24, 10-26, 18-36) [D23A]
- Ki (PA1b receptor; SEM): 1.2 ± 1.6 nM
- LD50 (insect cell toxicity) [1]: 24 ± 9 nM

Sequence: ASCPNVGAVCSPFETKPCGNVKDCACLPWGLFFGTCINPTG (also: bicyclic or more (positions not given here)) [R25A, single point alanine mutant of AG41 at Arg-25]
- Ki (PA1b receptor): > 1000 nM

Sequence: ASCPNVGAVCSPFETKPCGNVKDCRCAPWGLFFGTCINPTG (disulfide 3-24, 10-26, 18-36) [L27A]
- Ki (PA1b receptor; SEM): 486 ± 11 nM
- LD50 (insect cell toxicity) [1]: 907 ± 46 nM

Sequence: ASCPNVGAVCSPFETKPCGNVKDCRCLPAGLFFGTCINPTG (disulfide 3-24, 10-26, 18-36) [W29A]
- Ki (PA1b receptor; SEM): 36.3 ± 6.7 nM
- LD50 (insect cell toxicity) [1]: 89.0 ± 3.7 nM

Sequence: ASCPNVGAVCSPFETKPCGNVKDCRCLPWGAFFGTCINPTG (also: bicyclic or more (positions not given here)) [L31A, single point alanine mutant of AG41 at Leu-31]
- Ki (PA1b receptor; SEM): 263 ± 8 nM

Sequence: ASCPNVGAVCSPFETKPCGNVKDCRCLPWGLAFGTCINPTG (disulfide 3-24, 10-26, 18-36) [F32A]
- Ki (PA1b receptor; SEM): 39.8 ± 15 nM
- LD50 (insect cell toxicity) [1]: 122 ± 12 nM

Sequence: ASCPNVGAVCSPFETKPCGNVKDCRCLPWGLFAGTCINPTG (disulfide 3-24, 10-26, 18-36) [F33A]
- Ki (PA1b receptor; SEM): 15 ± 4.8 nM
- LD50 (insect cell toxicity) [1]: 210 ± 8 nM

Sequence: ASCPNVGAVCSPFETKPCGNVKDCRCLPWGLFFGTCINPTG (disulfide 3-24, 10-26, 18-36) [AG41]
- Ki (PA1b receptor; SEM): 1.3 ± 0.6 nM
- LD50 (insect cell toxicity) [1]: 5.6 ± 1.8 nM
